According to patent US7282213B2, “Method for applying a drug coating to a medical device” (Medtronic, Inc., priority 2002, dated 2007):

Assay: HPLC check for drug degradation after thermal processing of the electrode coating
Assay type: physicochemical
Settings: coating heated to solid-state phase change (hot air tool), dissolved from electrode in solvent, compared to control solution
Description: Prior attempts at heating a drug to form a more durable drug coating on an electrode surface have been less successful because the drug may degrade during the heating process due to overheating. One advantage of the present invention is that the controlled heating process, using a focused, direct heat source, achieves a change in solid state and micro-crack healing forming a conformable crystalline coating with a decrease in the defect density, without degrading the drug. […] Electrodes coated with beclomethasone dipropionate, according to the thermal processing methods described above and shown in FIG. 3, have been soaked in a solvent to dissolve the drug coating from the electrode surface. The resulting test solution was analyzed using HPLC and compared to HPLC results from a control sample of beclomethasone dipropionate in solution. Chromatograms of the test solution samples were identical to those of the control samples with regards to retention time of the major peak.

CCC(=O)OCC(=O)[C@@]1(OC(=O)CC)[C@@H](C)C[C@H]2[C@@H]3CCC4=CC(=O)C=C[C@]4(C)[C@@]3(Cl)[C@@H](O)C[C@@]21C [beclomethasone dipropionate anhydrous]
degradation products by HPLC after thermal processing: no peaks associated with degradation products were observed
